In patent US20230391766A1, “1-(2-(4-CYCLOPROPYL-1H-1,2,3-TRIAZOL-1-YL)ACETYL)-4-HYDROXY-N-(BENZYL)PYRROLIDIN E-2-CARBOXAMIDE DERIVATIVES AS VHL INHIBITORS FOR THE TREATMENT OF ANEMIA AND CANCER” (Genentech, Inc., priority 2020, published 2023):

Tests used:
VHL Elongin B/C complex = biological target: T1, VHL Elongin B/C complex (Homo sapiens, UniProt P40337); assay: Fluorescence Polarization (FP) VHL Binding Assay; conditions: fluorescence polarization tracer competition; geometric mean where more than one measurement
T1 construct: amino acids E55-D213 of human VHL with N-terminal His6 tag; His6 (N); TEV-protease cleavage site (N); made in house; host or cells: E. coli
Procedure: The binding of test compounds to the VHL Elongin B/C complex was measured using a fluorescence polarization tracer competition assay. The VHL/Elongin B/C protein complex used in the assay was generated as follows. The coding region for amino acids E55-D213 of human VHL with N-terminal His6 tag with a TEV-protease cleavage site was co-expressed with Elongin B (residues M1-Q118) and Elongin C (Residues M17-C112) in E. coli. The VHL/Elongin B/C complex was purified using an affinity nickel column, anion exchange HiTrap QP HP column chromatography, and gel filtration using a Superdex 75 26/60 column. The purified VHL/Elongin B/C complex was dialyzed into formulation buffer: 20 mM Bis-Tris pH7.0, 150 mM NaCl, 1 mM DTT. A VHL fluorescence polarization probe consisted of a VHL ligand coupled to carboxytetramethylrhodamine (TAMRA); (2S,4R)—N-(2-(2-(3′,6′-bis(dimethylamino)-3-oxo-3H-spiro[isobenzofuran-1,9′-xanthene]-5-carboxamido)ethoxy)-4-(4-methylthiazol-5-yl)benzyl)-4-hydroxy-1-((R)-3-methyl-2-(3-methylisoxazol-5-yl)butanoyl)pyrrolidine-2-carboxamide. […] DMSO was dispensed into wells designated for “VHL control” (without compound) wells. The “Assay Buffer” consisted of 50 mM Tris pH 8.0, 120 mM NaCl, 0.005% Nonidet P-40, and 1% DMSO (v/v). Assay Buffer containing 5.28 μM VHL Elongin B/C complex was prepared and 5 μl dispensed using a BioRapTR (Beckman Coulter) into each well of the assay plate. Assay Buffer was also dispensed into “no VHL control” wells using the same method. A “pre-assay” fluorescence measurement was made using an Infinite® M1000 (Tecan) plate reader (Excitation 530 nm, Emission 574 nm, Bandwidth 10 nm). Assay Buffer containing 3.34 nM of the VHL FP probe was prepared in Assay Buffer and 5 μl dispensed into each well of the assay plate using a BioRapTR (Beckman Coulter). The final VHL/Elongin B/C protein concentration is 2.64 nM and the final probe concentration is 1.67 nM. Assay plates were briefly centrifuged and incubated for 1 hour at room temperature. “Post-assay” fluorescence polarization measurements were made as described for the “pre-assay” fluorescence measurement. Fluorescence polarization was calculated for each sample; taking into account the “pre-assay” fluorescence measurements and subtracting the fluorescence signal of the compound/VHL only (“pre-assay”) measurements from the “post-assay” fluorescence polarization measurements, for each plane of polarization. The data were analyzed using Genedata Screener software and normalized to the “no VHL control” and “VHL control” (without compound). IC50 values were calculated using a four parameter curve fit (Robust method).

VHL [1] = biological target: T2, VHL (Homo sapiens, UniProt P40337); assay: VHL HEK-293 BRET Assay (VHL NanoBRET Target Engagement Assay); format: cell-based; conditions: for IC50: HEK 293 RT VHL-NanoLuc stable cells, 1 uM tracer, 2 hours, geometric mean where more than one measurement, read-out: VHL binding in cells (HEK293 nanoBRET); for Ratio cell permeability shift: ratio not defined
T2 construct: expressed in transfected cells
Procedure: (§1) The VHL NanoBRET™ Target Engagement Assay analyzes the apparent affinity of test compounds for VHL in cells by competitive displacement of a VHL NanoBRET™ tracer reversibly bound to a NanoLuc® VHL fusion protein stably expressed in the cells.
(§2) 50 nL of control compound (10 mM; parental unlabeled VHL antagonist; see structure below) and 50 nL of DMSO (negative control) were dispensed into the appropriate control wells. DMSO was backfilled to a final volume of 50 nL as required. […] Max Signal control wells consisted of DMSO only treated wells. Minimum Signal control wells contained of 10 uM parental unlabeled VHL antagonist (control compound—see structure below). […] Background Signal control wells were prepared without tracer for background correction steps.
(§3) The raw BRET ratio values were calculated by dividing the acceptor emission value (610 nm) by the donor emission value (460 nm) for each sample. To correct for background, the BRET ratio in the absence of tracer (average of no-tracer control samples) was subtracted from the BRET ratio of each sample. Raw BRET units were converted to milliBRET units (mBU) by multiplying each raw BRET value by 1,000. The normalized NanoBRET™ signal was calculated relative to the Max Signal control wells (DMSO treated control wells) and the Minimum Signal control wells. Percentage inhibition was calculated relative to the Minimum Signal control and Maximum Signal control wells. IC50 values were derived by four parameter curve fitting using the Robust method.

VHL [2] = biological target: T2, VHL; assay: VHL nanoBRET (+ Digitonin); format: cell-based
Procedure: as §1, §2, §3

T1 sequence (P40337 55-213): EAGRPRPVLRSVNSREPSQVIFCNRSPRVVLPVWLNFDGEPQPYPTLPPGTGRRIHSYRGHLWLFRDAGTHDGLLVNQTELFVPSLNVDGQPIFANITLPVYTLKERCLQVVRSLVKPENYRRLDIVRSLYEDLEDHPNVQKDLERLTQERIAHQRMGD
T1 sequence (Q15370 whole entry partner, the tested form may be a part): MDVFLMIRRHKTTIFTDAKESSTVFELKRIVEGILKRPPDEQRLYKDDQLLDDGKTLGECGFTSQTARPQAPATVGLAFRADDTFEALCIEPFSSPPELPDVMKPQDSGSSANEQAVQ
T1 sequence (Q15369 17-112 partner limits assumed): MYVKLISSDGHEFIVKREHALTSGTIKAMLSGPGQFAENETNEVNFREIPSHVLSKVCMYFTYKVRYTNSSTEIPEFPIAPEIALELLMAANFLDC
T2 sequence (P40337 whole entry): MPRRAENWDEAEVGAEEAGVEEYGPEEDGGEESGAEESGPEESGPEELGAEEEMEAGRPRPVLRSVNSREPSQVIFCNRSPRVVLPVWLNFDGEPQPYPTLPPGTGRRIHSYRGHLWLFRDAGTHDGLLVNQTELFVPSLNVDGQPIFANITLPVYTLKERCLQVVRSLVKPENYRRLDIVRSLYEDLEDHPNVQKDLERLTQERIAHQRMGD

Structure (SMILES)	IC50 (VHL Elongin B/C complex) [nM]	IC50 (VHL [1]) [nM]	Ratio cell permeability shift (VHL [1])	EC50 (VHL [2]) [nM]
CC(=O)NCCOCc1cn([C@H](C(=O)N2C[C@H](O)C[C@H]2C(=O)N[C@H](Cc2ccc(-c3ccccc3)cc2)C(N)=O)C(C)(C)C)nn1 [Example S14, (2S,4R)—N—((R)-3-([1,1′-biphenyl]-4-yl)-1-amino-1-oxopropan-2-yl)-1-((S)-2-(4-((2-acetamidoethoxy)methyl)-1H-1,2,3-triazol-1-yl)-3,3-dimethylbutanoyl)-4-hydroxypyrrolidine-2-carboxamide]	80	20700	264.37	
C=CC(C)(C)[C@@H](C(=O)N1C[C@H](O)C[C@H]1C(=O)N[C@H](Cc1ccc(-c2ccccc2)cc1)C(N)=O)n1cc(C2CC2)nn1 [Example S7, (2S,4R)—N—((R)-3-([1,1′-biphenyl]-4-yl)-1-amino-1-oxopropan-2-yl)-1-((S)-2-(4-cyclopropyl-1H-1,2,3-triazol-1-yl)-3,3-dimethylpent-4-enoyl)-4-hydroxypyrrolidine-2-carboxamide]		110	0.68	160
Cc1ncsc1-c1ccc([C@H](C)NC(=O)[C@@H]2C[C@@H](O)CN2C(=O)[C@@H](n2cc(C3CC3)nn2)C23CC4CC(CC(C4)C2)C3)cc1 [Example S20, (2S,4R)-1-((2S)-2-(adamantan-1-yl)-2-(4-cyclopropyl-1H-1,2,3-triazol-1-yl)acetyl)-4-hydroxy-N—((S)-1-(4-(4-methylthiazol-5-yl)phenyl)ethyl)pyrrolidine-2-carboxamide]			0.54	10
NC(=O)[C@@H](Cc1ccc(-c2ccccc2)cc1)NC(=O)[C@@H]1C[C@@H](O)CN1C(=O)[C@@H](n1cc(C2CC2)nn1)C12CC3CC(CC(C3)C1)C2 [Example S8, (2S,4R)—N—((R)-3-([1,1′-biphenyl]-4-yl)-1-amino-1-oxopropan-2-yl)-1-((2S)-2-(adamantan-1-yl)-2-(4-cyclopropyl-1H-1,2,3-triazol-1-yl)acetyl)-4-hydroxypyrrolidine-2-carboxamide]		120	0.73	160
Cc1ncsc1-c1ccc(CNC(=O)[C@@H]2C[C@@H](O)CN2C(=O)[C@@H](n2cc(C3(c4cn([C@H](C(=O)N5C[C@H](O)C[C@H]5C(=O)NCc5ccc(-c6scnc6C)cc5)C(C)(C)C)nn4)CC3)nn2)C(C)(C)C)cc1 [Compound 31, (2S,2'S,4R,4′R)-1,1′-((2S,2'S)-2,2′-(cyclopropane-1,1-diylbis(JH-1,2,3-triazole-4,1-diyl))bis(3,3-dimethylbutanoyl))bis(4-hydroxy-N-(4-(4-methylthiazol-5-yl)benzyl)pyrrolidine-2-carboxamide)]		310	19.75	20
CC(C)(C)[C@@H](C(=O)N1C[C@H](O)C[C@H]1C(=O)N[C@H](Cc1ccc(-c2ccccc2)cc1)C(N)=O)n1cc(C(N)=O)nn1 [Example S16, 1-((S)-1-((2S,4R)-2-(((R)-3-([1,1′-biphenyl]-4-yl)-1-amino-1-oxopropan-2-yl)carbamoyl)-4-hydroxypyrrolidin-1-yl)-3,3-dimethyl-1-oxobutan-2-yl)-1H-1,2,3-triazole-4-carboxamide]		3310	8.30	400
CC(C)[C@H](C(=O)N1C[C@H](O)C[C@H]1C(=O)N[C@H](Cc1ccc(-c2ccccc2)cc1)C(N)=O)n1nnc2ccccc21 (single isomer, unassigned) [Isomer B from Example S36]		68500	1.01	68000
CC(C)[C@@H](C(=O)N1C[C@H](O)C[C@H]1C(=O)N[C@H](Cc1ccc(-c2ccccc2)cc1)C(N)=O)n1nnc2ccccc21 (single isomer, unassigned) [Isomer A from Example S36]		300	0.77	390

More lines, now with the values ahead:

IC50 (VHL Elongin B/C complex) [nM]	IC50 (VHL [1]) [nM]	Ratio cell permeability shift (VHL [1])	EC50 (VHL [2]) [nM]	Structure (SMILES)
20	20	0.88	20	Cc1ncsc1-c1ccc(CNC(=O)[C@@H]2C[C@@H](O)CN2C(=O)[C@@H](n2cc(Cc3ccccc3)nn2)C(C)(C)C)cc1 [Example S27, (2S,4R)-1-((S)-2-(4-benzyl-1H-1,2,3-triazol-1-yl)-3,3-dimethylbutanoyl)-4-hydroxy-N-(4-(4-methylthiazol-5-yl)benzyl)pyrrolidine-2-carboxamide]
10	10	1.22	10	Cc1ncsc1-c1ccc(CNC(=O)[C@@H]2C[C@@H](O)CN2C(=O)[C@@H](n2cc(C3CC3)nn2)C(C)(C)C)cc1 [Example S24, (2S,4R)-1-((S)-2-(4-cyclopropyl-1H-1,2,3-triazol-1-yl)-3,3-dimethylbutanoyl)-4-hydroxy-N-(4-(4-methylthiazol-5-yl)benzyl)pyrrolidine-2-carboxamide]
	10	1.04	10	Cc1ncsc1-c1ccc(CNC(=O)[C@@H]2C[C@@H](O)CN2C(=O)[C@@H](n2cc(C3(C)CC3)nn2)C(C)(C)C)cc1 [Example S29, (2S,4R)-1-((S)-3,3-dimethyl-2-(4-(1-methylcyclopropyl)-1H-1,2,3-triazol-1-yl)butanoyl)-4-hydroxy-N-(4-(4-methylthiazol-5-yl)benzyl)pyrrolidine-2-carboxamide]
	< 5	~1	< 5	Cc1ncsc1-c1ccc([C@H](C)NC(=O)[C@@H]2C[C@@H](O)CN2C(=O)[C@H](C2CCCCC2)n2cc(C3CC3)nn2)cc1 [Example S19, (2S,4R)-1-((S)-2-cyclohexyl-2-(4-cyclopropyl-1H-1,2,3-triazol-1-yl)acetyl)-4-hydroxy-N—((S)-1-(4-(4-methylthiazol-5-yl)phenyl)ethyl)pyrrolidine-2-carboxamide]
	10	0.84	10	C[C@H](NC(=O)[C@@H]1C[C@@H](O)CN1C(=O)[C@@H](n1cc(C2CC2)nn1)C(C)(C)C)c1ccc(-c2ccccc2Cl)cc1 [Example S46, (2S,4R)—N—((S)-1-(2′-chloro-[1,1′-biphenyl]-4-yl)ethyl)-1-((S)-2-(4-cyclopropyl-1H-1,2,3-triazol-1-yl)-3,3-dimethylbutanoyl)-4-hydroxypyrrolidine-2-carboxamide]
	100	0.76	140	CCC(C)(C)[C@@H](C(=O)N1C[C@H](O)C[C@H]1C(=O)N[C@H](Cc1ccc(-c2ccccc2)cc1)C(N)=O)n1cc(C2CC2)nn1 [Example S6, (2S,4R)—N—((R)-3-([1,1′-biphenyl]-4-yl)-1-amino-1-oxopropan-2-yl)-1-((S)-2-(4-cyclopropyl-1H-1,2,3-triazol-1-yl)-3,3-dimethylpentanoyl)-4-hydroxypyrrolidine-2-carboxamide]
	10	0.85	10	Cc1ncsc1-c1ccc([C@H](C)NC(=O)[C@@H]2C[C@@H](O)CN2C(=O)[C@@H](n2cc(C3CC3)nn2)C(C)(C)C)cc1 [Example S18, (2S,4R)-1-((S)-2-(4-cyclopropyl-1H-1,2,3-triazol-1-yl)-3,3-dimethylbutanoyl)-4-hydroxy-N—((S)-1-(4-(4-methylthiazol-5-yl)phenyl)ethyl)pyrrolidine-2-carboxamide]
	40	0.98	40	Cc1ncsc1-c1ccc(CNC(=O)[C@@H]2C[C@@H](O)CN2C(=O)[C@@H](n2cc(C3(C(F)(F)F)CC3)nn2)C(C)(C)C)cc1 [Example S28, (2S,4R)-1-((S)-3,3-dimethyl-2-(4-(1-(trifluoromethyl)cyclopropyl)-1H-1,2,3-triazol-1-yl)butanoyl)-4-hydroxy-N-(4-(4-methylthiazol-5-yl)benzyl)pyrrolidine-2-carboxamide]
	10	0.72	10	Cc1ncsc1-c1ccc(C(C)NC(=O)[C@@H]2C[C@@H](O)CN2C(=O)[C@@H](n2cc(C3CC3)nn2)C(C)(C)C)c(Cl)c1 (stereo partly drawn) [Example S22, (2S,4R)—N-(1-(2-chloro-4-(4-methylthiazol-5-yl)phenyl)ethyl)-1-((S)-2-(4-cyclopropyl-1H-1,2,3-triazol-1-yl)-3,3-dimethylbutanoyl)-4-hydroxypyrrolidine-2-carboxamide]
	30	1.03	30	CC(C)(C)[C@@H](C(=O)N1C[C@H](O)C[C@H]1C(=O)NCc1ccc(-c2ccccc2F)cc1)n1cc(C2CC2)nn1 [Example S43, (2S,4R)-1-((S)-2-(4-cyclopropyl-1H-1,2,3-triazol-1-yl)-3,3-dimethylbutanoyl)-N-((2′-fluoro-[1,1′-biphenyl]-4-yl)methyl)-4-hydroxypyrrolidine-2-carboxamide]
